# Paper PMC12670313 (ACS Central Science, 2025)
# “Also recorded” adds a separate entry of the source.
# Experiments:
# [1] = tested on: WT myotubes; assay: Viability of WT myotubes; format: cell-based, human; details: 50 µM
# [2] = tested on: base pair RNA (UU internal loops replaced with AU base pairs); assay: 1D imino proton NMR with base pair control RNA; format: binding; details: 50 µM RNA, 100 µM compound
# Method: NMR spectra were recorded on a 700 MHz Bruker Avance III spectrometer equipped with a cryogenic probe. RNAs (r(GACC-UGCU-GGU-GAAA-ACC-UGC-UGG-UC) where the underlined Us indicate the internal loop nucleotides and bold indicate a GNRA hairpin) and (r(GACC-AGCU-GGU-GAAA-ACCA-GCU-GGUC) where UU internal loops were replaced with AU base pairs) were purchased from Dharmacon, HPLC purified, deprotected and desalted. The RNA (50 μM) was dissolved in NMR Buffer (5 mM KH2PO4/K2HPO4, 0.25 mM EDTA, pH 6.0) or NMR Buffer supplemented with 50 mM NaCl and reannealed by heating to 95 °C for 3 min, and then slowly cooling the sample to room temperature before adding to Shigemi NMR tubes (Shigemi, Inc.).
# 1D ^1H NMR spectra of exchangeable (imino) protons were acquired in 5% D2O and 95% H2O at 9 °C using 50 μM of RNA in the absence of compound. Compounds were then dissolved in D6-DMSO and added to the RNA sample to achieve a final concentration of 100 μM (1:2 RNA:compound). The chemical shifts were referenced to the residual solvent peaks of D6-DMSO, which served as the internal calibration standard. NMR spectra were processed in Topspin 4.0.6.
# [3] = molecular target: r(CUG)2; assay: Fluorescence binding assay with r(CUG) repeat RNA; details: A6 100 nM titrated with RNA; read-out: dissociation constant (Kd)
# Method: (§1) Binding assays employed the same RNA used in NMR studies (see “NMR Spectroscopy”). All binding experiments were performed in 1× TR-FRET Assay Buffer lacking Tween-20 on black 384-well nonbinding microplates (Greiner. catalog #781900) with a total volume of 10 μL per well. A 100 nM solution of A6 (the fluorescent probe) was prepared in the same buffer and increasing concentrations of the RNA were then titrated into the A6 solution. After a 20 min incubation at room temperature, fluorescence was measured by a Spectra Max M5 plate reader using an excitation wavelength of 320 nm and an emission wavelength of 480 nm. To confirm specificity, parallel measurements were performed with a fully paired RNA construct as a negative control, where no significant change in fluorescence was observed. The change in fluorescence signal as a function of RNA concentration was fitted to a standard ligand binding for one site saturation 6 Fobs=F0+Fmax−F0/1+(Kd/[RNA])^n where F obs is the observed fluorescence at each RNA concentration, F 0 and F max are the fluorescence intensities of free and fully bound RNA, K d is the dissociation constant, and n is the Hill coefficient.
# [4] = tested on: fully paired RNA; assay: Fluorescence binding assay with fully paired RNA; details: A6 100 nM titrated with RNA
# Method: as §1
# [5] = tested on: r(CUG)2, NMR construct with two 1 × 1 UU internal loops (RNA, repeat) GACCUGCUGGUGAAAACCUGCUGGUC; details: RNA named only as r(CUG) repeats; binding assays used the NMR RNA
smiles,measurement,setting,value
Cc1cn2nc(C(=O)NCCc3ccccc3)cc2c(N2CCCC2)n1 [A5],toxicity in wild-type cells,[1],caused toxicity
COc1ccc(CCNC(=O)c2cc3c(N4CCCC4)nc(C)cn3n2)cc1OC [A6],binding to base pair RNA (1D imino proton spectra),[2],does not bind
same,Kd,[3],17 ± 2 µM
same,binding to fully paired RNA,[4],no measurable binding affinity; also recorded: no significant binding
Cc1ccc(CNC(=O)c2cc3c(N4CCSCC4)nc(C)cn3n2)cc1 [B1],Kd,[5],> 50 µM
